# Test results from patent publication US7253197B2, “Aminothiazole derivatives” (Hoffmann-La Roche Inc., priority 2002, dated 2007).
# Target: T1, recombinant mouse NPY5-receptor (mNPY5) (Mus musculus, UniProt O70342)
# T1 construct: The full-length cDNA encoding the mouse NPY5 (mNPY5) receptor was amplified from mouse brain cDNA; expressed in transfected cells; membrane preparation
# T1 sequence (O70342 1-466): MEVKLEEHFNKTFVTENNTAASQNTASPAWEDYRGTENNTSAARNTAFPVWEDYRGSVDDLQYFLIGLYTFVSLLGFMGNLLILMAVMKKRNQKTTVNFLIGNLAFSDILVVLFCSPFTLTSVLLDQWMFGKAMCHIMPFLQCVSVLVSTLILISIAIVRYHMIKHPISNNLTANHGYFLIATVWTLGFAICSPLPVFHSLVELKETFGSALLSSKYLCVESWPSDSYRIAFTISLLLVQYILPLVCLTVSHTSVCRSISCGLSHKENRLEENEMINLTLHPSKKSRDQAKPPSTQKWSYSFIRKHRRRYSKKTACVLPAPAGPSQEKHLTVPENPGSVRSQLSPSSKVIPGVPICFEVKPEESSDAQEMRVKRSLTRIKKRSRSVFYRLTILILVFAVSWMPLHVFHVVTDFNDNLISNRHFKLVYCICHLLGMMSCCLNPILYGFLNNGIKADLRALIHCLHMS
# Assay: Radioligand competition binding
# Details: HEK293 membranes expressing mNPY5; displacement of 100 pM [125I]labeled PYY; 1 h at 22° C.; read-out: NPY5-R (mouse) IC50
# Excerpt: The full-length cDNA encoding the mouse NPY5 (mNPY5) receptor was amplified from mouse brain cDNA using specific primers, designed based on the published sequence, and Pfu DNA-Polymerase. The amplification product was subcloned into the mammalian expression vector pcDNA3 using Eco RI and XhoI restriction sites. Positive clones were sequenced and one clone, encoding the published sequence was selected for generation of stable cell clones. The sequence is published in Borowsky B., et al., “Molecular Biology and Pharmacology of Multiple NPY Y5 Receptor Species Homologs”, Regul. Pept. 75-76:45-53 (1998).
# Human embryonic kidney 293 (HEK293) cells were transfected with 10 μg mNPY5 DNA using the lipofectamine reagent. Two days after transfection, geneticin selection (1 mg/ml) was initiated and several stable clones were isolated. One clone was further used for pharmacological characterization.
# Human embryonic kidney 293 cells (HEK293), expressing recombinant mouse NPY5-receptor (mNPY5) were broken by three freeze/thawing cycles in hypotonic Tris buffer (5 mM, pH 7.4, 1 mM MgCl2), homogenized and centrifuged at 72,000×g for 15 min. The pellet was washed twice with 75 mM Tris buffer, pH 7.4, containing 25 mM MgCl2 and 250 mM sucrose, 0.1 mM phenylmethylsulfonylfluoride and 0.1 mM 1,10-pheneanthrolin, resuspended in the same buffer and stored in aliquots at −80° C. Protein was determined according to the method of Lowry using bovine serum albumine (BSA) as a standard. […]
row,IC50,Structure (SMILES)
1,66 nM,"N#Cc1cccc(Nc2ncc(C(=O)c3ccc(F)cc3)s2)c1 [Example 8, 3-[5-(4-Fluoro-benzoyl)-thiazol-2-ylamino]-benzonitrile]"
2,8 nM,"O=C(c1cnc(Nc2cccc(C(F)(F)F)c2)s1)c1ccccc1Cl [Example 29, (2-Chloro-phenyl)-[2-(3-trifluoromethyl-phenylamino)-thiazol-5-yl]-methanone]"
3,86 nM,"CC(=O)c1cccc(Nc2ncc(C(=O)c3ccccc3C)s2)c1 [Example 61, 1-{3-[5-(2-Methyl-benzoyl)-thiazol-2-ylamino]-phenyl}-ethanone]"
